Laboratory results as given in US11826351B2, “Compounds useful as kinase inhibitors” (Loxo Oncology, Inc., priority 2015, dated 2023).
pIC50: −log10 of the molar value. Like-named read-outs stand apart in the source and are kept apart here.

Columns and labels:
[1] = biological target: T1, Recombinant BTK^C481S kinase (Homo sapiens, UniProt Q06187, C481S); test: BTK C481S binding affinity (LanthaScreen TR-FRET); conditions: Kinase Tracer 236, 5 h incubation
T1 construct: purchased SignalChem
Procedure, shortened: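 BTK C481S tracer-displacement TR-FRET: 5 nM His-tagged kinase, 2 nM Eu anti-His antibody and 30 nM Kinase Tracer 236 incubated with titrated inhibitor for 5 h in Kinase Buffer A. Read at 340 nm excitation, 615/665 nm emission; IC50 from variable-slope log[inhibitor]–response fit.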

[2] = system: OCI-Ly10 human DLBCL cells; test: OCI-Ly10 anti-proliferative activity (Resazurin); type: cell-based; conditions: OCI-Ly10 cells, 72 h compound treatment, Resazurin, read-out: Proliferation Assay OCI-Ly10-20% FBS
Procedure, shortened: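 OCI-Ly10 human DLBCL cells, whose growth depends on NFκB signalling, were seeded at 7.5×10^3 cells per well in 96-well plates with a range of compound concentrations and kept at 37° C for 72 h. Resazurin was then added, and after 5 h fluorescence was read at 590 nm.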

[3] = biological target: T2, Recombinant BTK^WT kinase (Homo sapiens, UniProt Q06187); test: BTK WT binding affinity (LanthaScreen TR-FRET); conditions: Kinase Tracer 236, 5 h incubation
T2 construct: purchased Invitrogen
Procedure, shortened: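 Tracer-displacement TR-FRET: 2.5 nM recombinant BTK^WT, 2 nM Eu anti-His antibody and 15 nM Kinase Tracer 236 incubated with varying inhibitor concentrations for 5 h in Kinase Buffer A. Signal read at 340 nm excitation, 615/665 nm emission; IC50 from variable-slope log[inhibitor]–response fit.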

Recombinant EGFR = biological target: T3, Recombinant EGFR (Homo sapiens, UniProt P00533); test: EGFR binding affinity (LanthaScreen TR-FRET); conditions: Kinase Tracer 199, 5 h incubation
T3 construct: purchased Invitrogen
Procedure, shortened: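 TR-FRET binding (LanthaScreen) with recombinant EGFR; signal measured across a compound concentration range. IC50 obtained by fitting RFU against log[inhibitor] to a variable-slope model.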

T3 sequence (P00533 25-1210): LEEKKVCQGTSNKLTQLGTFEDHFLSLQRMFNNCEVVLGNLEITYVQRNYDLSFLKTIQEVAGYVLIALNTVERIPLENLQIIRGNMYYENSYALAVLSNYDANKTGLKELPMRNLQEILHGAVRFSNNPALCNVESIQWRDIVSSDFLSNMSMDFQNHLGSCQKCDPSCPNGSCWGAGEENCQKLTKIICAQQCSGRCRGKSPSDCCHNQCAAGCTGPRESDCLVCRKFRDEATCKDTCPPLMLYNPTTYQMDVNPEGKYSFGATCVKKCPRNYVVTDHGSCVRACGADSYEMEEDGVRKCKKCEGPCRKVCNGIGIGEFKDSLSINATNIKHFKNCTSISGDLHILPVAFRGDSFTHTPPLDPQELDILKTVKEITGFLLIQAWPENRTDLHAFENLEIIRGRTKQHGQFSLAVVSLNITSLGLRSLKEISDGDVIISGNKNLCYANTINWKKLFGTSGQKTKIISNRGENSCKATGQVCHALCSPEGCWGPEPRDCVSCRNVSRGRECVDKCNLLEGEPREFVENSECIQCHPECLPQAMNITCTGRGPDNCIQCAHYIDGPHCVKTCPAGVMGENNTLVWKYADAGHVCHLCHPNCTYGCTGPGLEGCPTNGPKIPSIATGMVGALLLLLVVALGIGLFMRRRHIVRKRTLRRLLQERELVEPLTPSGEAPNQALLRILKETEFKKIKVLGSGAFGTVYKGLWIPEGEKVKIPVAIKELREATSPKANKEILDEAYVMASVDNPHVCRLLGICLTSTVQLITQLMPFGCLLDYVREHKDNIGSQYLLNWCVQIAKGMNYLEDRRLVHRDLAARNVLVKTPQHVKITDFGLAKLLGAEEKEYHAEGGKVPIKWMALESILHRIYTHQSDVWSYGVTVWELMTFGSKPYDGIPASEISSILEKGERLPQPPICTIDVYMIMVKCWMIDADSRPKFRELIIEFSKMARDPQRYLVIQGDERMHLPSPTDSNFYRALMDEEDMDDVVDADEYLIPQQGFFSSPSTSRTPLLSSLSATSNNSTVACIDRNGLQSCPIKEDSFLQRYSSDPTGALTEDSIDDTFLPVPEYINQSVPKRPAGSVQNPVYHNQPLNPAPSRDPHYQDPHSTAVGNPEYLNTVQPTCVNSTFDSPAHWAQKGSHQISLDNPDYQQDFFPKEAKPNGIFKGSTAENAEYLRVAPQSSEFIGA
T2 sequence (Q06187 whole entry): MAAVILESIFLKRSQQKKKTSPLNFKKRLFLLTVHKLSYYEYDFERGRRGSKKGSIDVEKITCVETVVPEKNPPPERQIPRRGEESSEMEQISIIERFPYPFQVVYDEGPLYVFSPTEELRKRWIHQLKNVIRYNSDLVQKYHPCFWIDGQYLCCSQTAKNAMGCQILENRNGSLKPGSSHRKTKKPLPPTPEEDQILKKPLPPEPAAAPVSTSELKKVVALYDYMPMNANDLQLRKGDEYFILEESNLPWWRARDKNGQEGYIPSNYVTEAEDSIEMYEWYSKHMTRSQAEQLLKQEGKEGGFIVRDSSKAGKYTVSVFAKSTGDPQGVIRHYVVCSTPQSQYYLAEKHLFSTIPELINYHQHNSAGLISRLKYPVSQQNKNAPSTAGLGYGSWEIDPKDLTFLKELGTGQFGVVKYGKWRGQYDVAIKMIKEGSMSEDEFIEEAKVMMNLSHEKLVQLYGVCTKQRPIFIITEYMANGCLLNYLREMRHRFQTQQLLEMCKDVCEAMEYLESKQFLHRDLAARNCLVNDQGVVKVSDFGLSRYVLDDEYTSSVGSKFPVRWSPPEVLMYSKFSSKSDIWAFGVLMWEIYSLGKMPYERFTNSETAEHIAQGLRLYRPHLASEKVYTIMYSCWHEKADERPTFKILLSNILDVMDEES
T1 sequence (Q06187 whole entry C481S): as the sequence (Q06187 whole entry) above, with C481S counted along it

Row | pIC50 [1] | pIC50 ([2]; Homo sapiens, OCI-Ly10, 72 h) | pIC50 [3] | pIC50 (Recombinant EGFR) | pIC50 [2] | SMILES
1 | > 8.00 | 7.00 to 8.00 | > 8.00 | < 5.00 |  | COc1ccccc1C(=O)NCc1cc(F)c(-c2nn(C3CCCC3)c(N)c2C(N)=O)cc1F [Example 156, 5-amino-1-cyclopentyl-3-[2,5-difluoro-4-[[(2-methoxybenzoyl)amino]methyl]phenyl]pyrazole-4-carboxamide]
2 | 7.00 to 8.00 | 5.00 to 6.00 | 7.00 to 8.00 | 5.00 to 6.00 |  | CNc1c(C(N)=O)c(-c2ccc(CNC(=O)c3ccccc3OC)cc2)nn1-c1cccnc1 [Example 110, 3-[4-[[(2-methoxybenzoyl)amino]methyl]phenyl]-5-(methylamino)-1-(3-pyridyl)pyrazole-4-carboxamide]
3 | > 8.00 | 6.00 to 7.00 | > 8.00 | 6.00 to 7.00 |  | COc1ccccc1C(=O)NCc1ccc(-c2nn(CC(F)(F)F)c(N)c2C(N)=O)cc1 [Example 21, 5-Amino-3-[4-[[(2-methoxybenzoyl)amino]methyl]phenyl]-1-(2,2,2-trifluoroethyl)pyrazole-4-carboxamide]
4 | > 8.00 | 7.00 to 8.00 | > 8.00 | < 5.00 |  | COc1ccccc1C(=O)NCc1ccc(-c2nn(C3CCCOC3)c(N)c2C(N)=O)c(F)c1F (centres unmarked) [Example 157, 5-amino-3-[2,3-difluoro-4-[[(2-methoxybenzoyl)amino]methyl]phenyl]-1-tetrahydropyran-3-yl-pyrazole-4-carboxamide]
5 | 7.00 to 8.00 | 6.00 to 7.00 | 7.00 to 8.00 | 5.00 to 6.00 |  | COc1ccc(F)cc1C(=O)NCc1ccc(-c2nn(C(C3CCOC3)C(F)(F)F)c(N)c2C(N)=O)cc1 (mixture of isomers) [Example 175, 5-amino-3-[4-[[(5-fluoro-2-methoxy-benzoyl)amino]methyl]phenyl]-1-(2,2,2-trifluoro-1-tetrahydrofuran-3-yl-ethyl)pyrazole-4-carboxamide]
6 | 7.00 to 8.00 | 6.00 to 7.00 | 7.00 to 8.00 | < 5.00 |  | COc1ccccc1C(=O)NCc1ccc(-c2nn(C(C)c3cccnc3)c(N)c2C(N)=O)cc1 (centres unmarked) [Example 145, 5-amino-3-[4-[[(2-methoxybenzoyl)amino]methyl]phenyl]-1-[1-(3-pyridyl)ethyl]pyrazole-4-carboxamide]
7 | > 8.00 | 7.00 to 8.00 | > 8.00 | 5.00 to 6.00 |  | CCC(n1nc(-c2ccc(CNC(=O)c3cc(F)ccc3OC)cc2)c(C(N)=O)c1N)C(F)(F)F (centres unmarked) [Example 181, 5-amino-3-[4-[[(5-fluoro-2-methoxy-benzoyl)amino]methyl]phenyl]-1-[1-(trifluoromethyl)propyl]pyrazole-4-carboxamide]
8 | 7.00 to 8.00 | 5.00 to 6.00 | 6.00 to 7.00 | 5.00 to 6.00 |  | COc1ccc(F)cc1C(=O)NCc1ccc(-c2nn(C3(C(F)(F)F)CCOCC3)c(N)c2C(N)=O)cc1 [Example 190, 5-Amino-3-[4-[[(5-fluoro-2-methoxy-benzoyl)amino]methyl]phenyl]-1-[4-(trifluoromethyl)tetrahydropyran-4-yl]pyrazole-4-carboxamide]
9 | > 8.00 | 6.00 to 7.00 | 7.00 to 8.00 | < 5.00 |  | COc1ccccc1C(=O)NCc1cc(F)c(-c2nn(C3CCOCC3)c(N)c2C(N)=O)cc1F [Example 148, 5-amino-3-[2,5-difluoro-4-[[(2-methoxybenzoyl)amino]methyl]phenyl]-1-tetrahydropyran-4-yl-pyrazole-4-carboxamide]
10 | > 8.00 | 7.00 to 8.00 | > 8.00 | 6.00 to 7.00 |  | COc1ccccc1C(=O)NCc1ccc(-c2nn([C@@H]3CCc4ccccc43)c(N)c2C(N)=O)cc1 [Example 23, 5-Amino-1-[(1R)-indan-1-yl]-3-[4-[[(2-methoxybenzoyl)amino]methyl]phenyl]pyrazole-4-carboxamide]
11 | > 8.00 | 7.00 to 8.00 | > 8.00 | 6.00 to 7.00 |  | COc1ccccc1C(=O)NCc1ccc(-c2nn(C3Cc4ccccc4C3)c(N)c2C(N)=O)cc1 [Example 52, 5-amino-1-indan-2-yl-3-[4-[[(2-methoxybenzoyl)amino]methyl]phenyl]pyrazole-4-carboxamide]
12 | > 8.00 | 7.00 to 8.00 | > 8.00 | 6.00 to 7.00 |  | COc1ccccc1C(=O)NCc1ccc(-c2nn(C3CCC(F)(F)CC3)c(N)c2C(N)=O)cc1 [Example 68, 5-amino-1-(4,4-difluorocyclohexyl)-3-[4-[[(2-methoxybenzoyl)amino]methyl]phenyl]pyrazole-4-carboxamide]
13 | > 8.00 | 6.00 to 7.00 | > 8.00 | 5.00 to 6.00 |  | COc1ccc(F)cc1C(=O)NCc1ccc(-c2nn(C3CCOCC3)c(N)c2C(N)=O)cc1F [Example 123, 5-amino-3-[3-fluoro-4-[[(5-fluoro-2-methoxy-benzoyl)amino]methyl]phenyl]-1-tetrahydropyran-4-yl-pyrazole-4-carboxamide]
14 | > 8.00 | 5.00 to 6.00 | 7.00 to 8.00 | < 5.00 |  | COc1ccccc1C(=O)NCc1ccc(-c2nn(C(C)CO)c(N)c2C(N)=O)cc1 (centres unmarked) [Example 135, 5-amino-1-(2-hydroxy-1-methyl-ethyl)-3-[4-[[(2-methoxybenzoyl)amino]methyl]phenyl]pyrazole-4-carboxamide]
15 | > 8.00 | 6.00 to 7.00 | > 8.00 | 6.00 to 7.00 |  | CONC(=O)C1CCC(n2nc(-c3ccc(CNC(=O)c4ccccc4OC)cc3)c(C(N)=O)c2N)CC1 (mixture of isomers) [Example 75, 5-amino-3-[4-[[(2-methoxybenzoyl)amino]methyl]phenyl]-1-[4-(methoxycarbamoyl)cyclohexyl]pyrazole-4-carboxamide]
16 | > 8.00 | > 8.00 | 7.00 to 8.00 | < 5.00 |  | COc1ccc(F)cc1C(=O)NCc1ccc(-c2nn(C(C3CCOCC3)C(F)(F)F)c(N)c2C(N)=O)cc1 (centres unmarked) [Example 184, 5-amino-3-[4-[[(5-fluoro-2-methoxy-benzoyl)amino]methyl]phenyl]-1-(2,2,2-trifluoro-1-tetrahydropyran-4-yl-ethyl)pyrazole-4-carboxamide]
17 | > 8.00 | 7.00 to 8.00 | > 8.00 | 5.00 to 6.00 |  | COc1ccc(F)cc1C(=O)NCc1ccc(-c2nn(C(C)C(F)(F)F)c(N)c2C(N)=O)cc1 (centres unmarked) [Example 120, 5-amino-3-[4-[[(5-fluoro-2-methoxy-benzoyl)amino]methyl]phenyl]-1-(2,2,2-trifluoro-1-methyl-ethyl)pyrazole-4-carboxamide]
18 | > 8.00 | 7.00 to 8.00 | > 8.00 | 6.00 to 7.00 |  | COc1ccccc1C(=O)NCc1ccc(-c2nn(C3CCOCC3)c(N)c2C(N)=O)cc1 [Example 64, 5-amino-3-[4-[[(2-methoxybenzoyl)amino]methyl]phenyl]-1-tetrahydropyran-4-yl-pyrazole-4-carboxamide]
19 | > 8.00 | 6.00 to 7.00 | > 8.00 | 5.00 to 6.00 |  | COc1ccc(F)cc1C(=O)NCc1ccc(-c2nn(C(C)C3CCOC3)c(N)c2C(N)=O)cc1 (mixture of isomers) [Example 172, 5-amino-3-[4-[[(5-fluoro-2-methoxy-benzoyl)amino]methyl]phenyl]-1-(1-tetrahydrofuran-3-ylethyl)pyrazole-4-carboxamide]
20 | > 8.00 | 7.00 to 8.00 | > 8.00 | 5.00 to 6.00 |  | COc1ccc(F)cc1C(=O)NCc1ccc(-c2nn(C(C)C(F)(F)F)c(N)c2C(N)=O)cc1F (centres unmarked) [Example 177, 5-amino-3-[3-fluoro-4-[[(5-fluoro-2-methoxy-benzoyl)amino]methyl]phenyl]-1-(2,2,2-trifluoro-1-methyl-ethyl)pyrazole-4-carboxamide]
21 | > 8.00 | 7.00 to 8.00 | > 8.00 | 6.00 to 7.00 |  | COc1ccc(F)cc1C(=O)NCc1ccc(-c2nn(C3CCCC3)c(N)c2C(N)=O)cc1F [Example 76, 5-amino-1-cyclopentyl-3-[3-fluoro-4-[[(5-fluoro-2-methoxy-benzoyl)amino]methyl]phenyl]pyrazole-4-carboxamide]
22 | > 8.00 | 5.00 to 6.00 | 7.00 to 8.00 | 5.00 to 6.00 |  | CNc1c(C(N)=O)c(-c2ccc(CNC(=O)c3ccccc3OC)cc2)nn1C1CCOC1 (centres unmarked) [Example 97, 3-[4-[[(2-methoxybenzoyl)amino]methyl]phenyl]-5-(methylamino)-1-tetrahydrofuran-3-yl-pyrazole-4-carboxamide]
23 | > 8.00 |  | > 8.00 | 6.00 to 7.00 | 7.00 to 8.00 | COc1ccccc1C(=O)NCc1ccc(-c2nn(C3CCC(O)CC3)c(N)c2C(N)=O)cc1 (single isomer, unassigned) [Example 34a, 5-Amino-1-(4-hydroxycyclohexyl)-3-[4-[[(2-methoxybenzoyl)amino]methyl]phenyl]pyrazole-4-carboxamide]
